Results from patent US20240192197A1, “NOVEL SCREENING SYSTEM FOR DRUG TARGET ANTAGONIST BASED ON CELL LIFE/DEATH PHENOTYPE” (CENTER FOR EXCELLENCE IN MOLECULAR CELL SCIENCE, CHINESE …, priority 2021, published 2024).

Biological target: T1, FKBP12(F36V)-ΔCASP9 fusion protein (Homo sapiens, UniProt P55211+P62942, F37V)
T1 construct: expressed in transfected cells
Test: Verification of screening cell lines: AP1903-induced death of cells expressing target protein-FKBP12(F36V)-ΔCASP9 fusion
Type: cell-based
Conditions: no target protein degradation agent present
From the text: The screening system of the F-C fusion protein of the present invention can be applied to important targets of various diseases.

T1 sequence (P62942+P55211 fused P62942:F37V): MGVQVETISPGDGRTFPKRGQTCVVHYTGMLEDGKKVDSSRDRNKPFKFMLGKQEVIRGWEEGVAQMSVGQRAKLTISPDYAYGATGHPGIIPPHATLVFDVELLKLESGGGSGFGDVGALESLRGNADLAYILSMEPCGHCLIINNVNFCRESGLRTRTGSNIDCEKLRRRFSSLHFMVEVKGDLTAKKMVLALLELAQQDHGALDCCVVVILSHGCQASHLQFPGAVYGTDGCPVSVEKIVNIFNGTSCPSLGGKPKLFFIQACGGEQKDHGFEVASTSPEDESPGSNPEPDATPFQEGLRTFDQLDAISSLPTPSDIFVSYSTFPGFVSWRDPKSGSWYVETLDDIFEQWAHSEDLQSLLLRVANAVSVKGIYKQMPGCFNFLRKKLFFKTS

Q: For CC[C@H](C(=O)N1CCCC[C@H]1C(=O)O[C@H](CCc1ccc(OC)c(OC)c1)c1cccc(OCC(=O)NCCNC(=O)COc2cccc([C@@H](CCc3ccc(OC)c(OC)c3)OC(=O)[C@@H]3CCCCN3C(=O)[C@@H](CC)c3cc(OC)c(OC)c(OC)c3)c2)c1)c1cc(OC)c(OC)c(OC)c1 [AP1903], which “state of cells expressing target protein-FKBP12(F36V)-ΔCASP9 fusion after AP1903” value is on record?
A: The value was “cells are dead”.
